Reference: PMC9413995, “Synthesis and Assessment of the In Vitro and Ex Vivo Activity of Salicylate Synthase (Mbti) Inhibitors as New Candidates for the Treatment of Mycobacterial Infections” (Pharmaceuticals, 2022)
Converted amounts (≈) assume the structure as drawn. “And” between values parts separate entries of the source, which are not always exact repeats. Identical values can stand only once. “Also recorded” adds a separate entry of the source. Like-named read-outs stand apart in the source and are kept apart here.

How the values were obtained:
[1] = molecular target: T1, Recombinant M. tuberculosis MbtI (Mycobacterium tuberculosis, UniProt P9WFX1); assay: MbtI enzymatic assay (fluorimetric); type: biochemical; conditions: for IC50: MbtI activity, calculated for compounds showing %RA < 20; for % RA (percentage of residual enzymatic activity) / remaining activity at 100 µM: compound at 100 μM, 50 µM chorismic acid; for remaining activity at 100 µM: read-out: % RA (percentage of residual enzymatic activity)
T1 construct: made in house
T1 sequence (P9WFX1 whole entry): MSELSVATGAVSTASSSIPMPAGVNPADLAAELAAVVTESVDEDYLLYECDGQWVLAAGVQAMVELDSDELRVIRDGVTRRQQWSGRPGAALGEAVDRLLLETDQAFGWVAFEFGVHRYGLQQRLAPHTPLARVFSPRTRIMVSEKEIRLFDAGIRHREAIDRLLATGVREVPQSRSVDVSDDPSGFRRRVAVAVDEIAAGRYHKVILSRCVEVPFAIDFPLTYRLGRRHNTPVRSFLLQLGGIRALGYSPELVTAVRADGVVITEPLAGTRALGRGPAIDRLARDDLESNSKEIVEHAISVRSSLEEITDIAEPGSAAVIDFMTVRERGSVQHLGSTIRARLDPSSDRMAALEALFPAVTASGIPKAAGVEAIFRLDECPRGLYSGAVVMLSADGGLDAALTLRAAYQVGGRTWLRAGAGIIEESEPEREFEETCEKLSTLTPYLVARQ
Experimental: Recombinant M. tuberculosis MbtI was produced and purified, and enzyme activity determined as previously reported. All the reactions were performed at 37 °C, in a final volume of 400 μL of 50 mM Hepes pH 7.5, 5 mM MgCl2, containing 1–2 μM MbtI, by the addition of chorismic acid, and monitored using a Perkin Elmer LS3 fluorimeter (Ex. λ = 305 nm, Em. λ = 420 nm). […] IC50 values were determined by measuring the activity at different concentrations of the compound, and using the following equation with GraphPad software:(1) A[I] =A[0] × 1−[I]/[I]+IC50
where A[I] is the activity at inhibitor concentration [I] and A[0] is the activity in the absence of the inhibitor.

M. bovis BCG [2] = assay: microbe, parasite or virus in culture; type: cell-based; conditions: iron-limiting chelated Sauton's medium, REMA, 15 days
M. bovis BCG [3] = conditions: previous lead; cited from earlier work
M. bovis BCG [4] = type: cell-based
M. abscessus = assay: Infection assay of MPI-2-eGFP mAMs with M. abscessus tdTomato; type: cell-based
platelets = assay: Platelet activation assessment by whole blood flow cytometry; type: cell-based, human
Experimental: (§1) Whole blood (WB), drawn with a 19-gauge needle without venous stasis into sodium citrate (0.129M, 1/10 volume/volume)-containing tubes (Vacutainer, Becton Dickinson), discarding the first 4 mL, was incubated with 1f (100 nM, 500 nM, and 1000 nM) or with solvent (DMSO; final dilution: 0.01%) up to 3 h at room temperature. Untreated (NT) WB of each healthy volunteer was used as a comparison.
(§2) PLT, RBC, and WBC counts were assessed at 0, 15, 30, 45, 60, 120 min and 3 h after the addition of 1f or solvent using Sysmex XE-2100 Automated Hematology Analyzer. Data were reported as count ± SD of each cell population. To evaluate the effect of 1f on platelet activation, conventional platelet activation markers [P-selectin and activated glycoprotein IIbIIIa (aGPIIbIIIa)], as well as platelet-associated tissue factor (TF) expression, were analyzed by WB flow cytometry as previously described at 0, 30 and 60 min after the addition of the highest concentration of 1f or solvent. […] Microvesicle formation, another well-known activation marker, was also assessed by flow cytometry at each time point after the addition of different concentrations of 1f or solvent. Fluorochrome-conjugated isotype controls were used to quantify the background labeling. […]

[5] = system: platelet (PLT), red blood cells (RBC), and white blood cells (WBC); assay: Blood cell count in whole blood of healthy volunteers; type: cell-based, human; conditions: 100 nM, 500 nM, 1 µM, up to 3 h, room temperature
Experimental: as §1, §2

M. bovis BCG [6] = type: cell-based; remark: listed apart in the source
[7] = Mycobacterium tuberculosis variant bovis BCG, BCG, 360 h

SMILES | IC50 [1] | remaining activity at 100 µM [1] [%] | MIC99 (M. bovis BCG [2]; [7]) [µM] | melting point | other results
N#Cc1cc(Oc2ccccc2)cc(-c2ccc(C(=O)O)o2)c1 [1a, 5-(3-Cyano-5-phenoxyphenyl)furan-2-carboxylic acid] | 23.1 ± 2.6 µM | 14 | 125 (≈ 38.2 µg/mL) |  | % RA (percentage of residual enzymatic activity) [1]: 14.0 ± 4.1%
N#Cc1cc(Oc2ccc3ccccc3c2)cc(-c2ccc(C(=O)O)o2)c1 [1h, 5-(3-Cyano-5-(naphthalen-2-yloxy)phenyl)furan-2-carboxylic acid] | 16.3 ± 1.2 µM | 12.7 ± 2 | 125 (≈ 44.4 µg/mL) | 226 °C | 
N#Cc1cc(OCc2ccccc2)cc(-c2ccc(C(=O)O)o2)c1 [1b, 5-(3-(Benzyloxy)-5-cyanophenyl)furan-2-carboxylic acid] | 15.6 ± 1.2 µM | 1.2 ± 0.4 | 250 (≈ 79.8 µg/mL) | 187 °C | 
N#Cc1cc(OCCc2ccccc2)cc(-c2ccc(C(=O)O)o2)c1 [1c, 5-(3-Cyano-5-phenethoxyphenyl)furan-2-carboxylic acid] | ~3 µM and 3 µM | 0.6 ± 0.5 | 250 (≈ 83.3 µg/mL) | 202 °C | 
N#Cc1cccc(-c2ccc(C(=O)O)o2)c1 [I, 5-(3-cyanophenyl)furan-2-carboxylic acid] |  |  |  |  | MIC99 (M. bovis BCG [3]): 250 µM (≈ 53.3 µg/mL)
N#Cc1cc(Oc2ccc3cccnc3c2)cc(-c2ccc(C(=O)O)o2)c1 [1i, 5-(3-Cyano-5-(quinolin-7-yloxy)phenyl)furan-2-carboxylic acid] | 16.6 ± 1 µM | 13.9 ± 3.1 | 125 (≈ 44.5 µg/mL) | 263 °C (dec.) | 
N#Cc1cc(OCCOc2ccccc2)cc(-c2ccc(C(=O)O)o2)c1 [1f, 5-(3-Cyano-5-(2-phenoxyethoxy)phenyl)furan-2-carboxylic acid] | 12.1 ± 2 µM | 5.5 ± 2.4 | 63 (≈ 22 µg/mL) |  | BCG_tdTomato fluorescence / eGFP in infected MPI-2_eGFP (M. bovis BCG [4]): did not detect a reduction in Tdtomato fluorescence nor an increase in eGFP; also recorded: did not detect a significant efficacy in killing intracellular bacteria; Mab_tdTomato load 3-days p.t with respect to the prior time point (M. abscessus; highest concentration tested (32 μM), plate reader): significantly reduced; intracellular Mab_tdTomato burden in infected cells (microscopy, image segmentation) (M. abscessus; up to 32 μM, 2- and 3-days p.t): did not display a decrease in the Mab_tdTomato burden; Mab infection clearance / Mab_tdTomato load in infected MPI-2_eGFP (M. abscessus; up to 32 μM, 2- and 3-days p.t, plate reader): did not resolve Mab infection; also recorded: did not detect a significant efficacy in killing intracellular bacteria; platelet activation markers: P-selectin, monocyte-platelet and granulocyte-platelet aggregates, aGPIIbIIIa (platelets; 1 µM (highest concentration), 0, 30, 60 min): not affected; platelet-associated Tissue Factor expression, microvesicle formation (platelets; 1 µM, 0, 30, 60 min): not influenced; PLT, RBC, and WBC counts [5]: like untreated (NT) and DMSO-treated whole blood; also recorded: does not affect blood cell count; also recorded: no cytotoxicity against human cells; minimal concentration that prevented the production of siderophores (M. bovis BCG [6]; CAS assay, M. bovis BCG in chelated Sauton's medium): 32 µM; relation of antimycobacterial activity to inhibition of iron uptake (Universal CAS assay) (M. bovis BCG [6]; M. bovis BCG culture supernatants, 15 days): correlated to the inhibition of iron uptake; also recorded: positively related to the inhibition of iron uptake
N#Cc1cc(OCc2ccc3ccccc3c2)cc(-c2ccc(C(=O)O)o2)c1 [1j, 5-(3-Cyano-5-(naphthalen-2-ylmethoxy)phenyl)furan-2-carboxylic acid] | 34.8 ± 2.5 µM | 19.8 ± 6.5 | 250 (≈ 92.3 µg/mL) | 209 °C (dec.) | 
N#Cc1cc(OC/C=C/c2ccccc2)cc(-c2ccc(C(=O)O)o2)c1 [1e, (E)-5-(3-(Cinnamyloxy)-5-cyanophenyl)furan-2-carboxylic acid] | 13.5 ± 1 µM | 11.5 ± 1.7 | ~125 (≈ 43.2 µg/mL) | 170 °C | MIC99 (M. bovis BCG [2]): 125 µM (≈ 43.2 µg/mL)
N#Cc1cc(OCCNc2ccccc2)cc(-c2ccc(C(=O)O)o2)c1 [1g, 5-(3-Cyano-5-(2-(phenylamino)ethoxy)phenyl)furan-2-carboxylic acid] | ~18 µM and 18 µM | 9.3 ± 2.2 | 250 (≈ 87.1 µg/mL) |  | 
N#Cc1cc(OCCCc2ccccc2)cc(-c2ccc(C(=O)O)o2)c1 [1d, 5-(3-Cyano-5-(3-phenylpropoxy)phenyl)furan-2-carboxylic acid] |  | ~25 |  | 186 °C | % RA (percentage of residual enzymatic activity) [1]: 25.6 ± 5.8%
